Assay results as given in PubChem BioAssay (NCI).
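Where inhibition never reached the appropriate level, the endpoint shown equals the highest concentration tested. Otherwise, values were interpolated linearly from a five-concentration, 48-hour dose response in 96-well plates. GI50: concentration for 50% inhibition of growth. TGI: total growth inhibition.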

Tests used:
Assay in all cases: inhibition of tumour cell growth, NCI panel, 48 h
SNB-75 CNS = tested on: SNB-75 CNS
NCI-H226 lung = tested on: NCI-H226 lung
SR leukemia = tested on: SR leukemia
HCC-2998 colon = tested on: HCC-2998 colon
HT29 colon = tested on: HT29 colon
OVCAR-3 ovarian = tested on: OVCAR-3 ovarian
SK-OV-3 ovarian = tested on: SK-OV-3 ovarian
MALME-3M melanoma = tested on: MALME-3M melanoma
A549 NSCLC = tested on: A549 NSCLC
HL-60(TB) leukemia = tested on: HL-60(TB) leukemia
IGROV1 ovarian = tested on: IGROV1 ovarian
MDA-MB-231 breast = tested on: MDA-MB-231 breast
MOLT-4 leukemia = tested on: MOLT-4 leukemia
SK-MEL-28 melanoma = tested on: SK-MEL-28 melanoma
HOP-62 NSCLC = tested on: HOP-62 NSCLC
SNB-19 CNS = tested on: SNB-19 CNS
EKVX NSCLC = tested on: EKVX NSCLC
ACHN renal = tested on: ACHN renal
BT-549 breast = tested on: BT-549 breast
SK-MEL-2 melanoma = tested on: SK-MEL-2 melanoma
NCI-H460 lung = tested on: NCI-H460 lung
T-47D breast = tested on: T-47D breast
SN12C renal = tested on: SN12C renal
SF-539 CNS = tested on: SF-539 CNS
NCI-H23 lung = tested on: NCI-H23 lung
MCF7 breast = tested on: MCF7 breast
TK-10 renal = tested on: TK-10 renal
OVCAR-5 ovarian = tested on: OVCAR-5 ovarian
RPMI-8226 leukemia = tested on: RPMI-8226 leukemia
A498 renal = tested on: A498 renal
COLO 205 colon = tested on: COLO 205 colon
OVCAR-4 ovarian = tested on: OVCAR-4 ovarian
DU-145 prostate = tested on: DU-145 prostate
LOX IMVI melanoma = tested on: LOX IMVI melanoma
UACC-62 melanoma = tested on: UACC-62 melanoma
CCRF-CEM leukemia = tested on: CCRF-CEM leukemia
CAKI-1 renal = tested on: CAKI-1 renal
K-562 leukemia = tested on: K-562 leukemia
UACC-257 melanoma = tested on: UACC-257 melanoma
UO-31 renal = tested on: UO-31 renal
786-0 renal = tested on: 786-0 renal
KM12 colon = tested on: KM12 colon
HCT-116 colon = tested on: HCT-116 colon
MDA-MB-468 breast = tested on: MDA-MB-468 breast
HS 578T breast = tested on: HS 578T breast
M14 melanoma = tested on: M14 melanoma
SF-295 CNS = tested on: SF-295 CNS
RXF 393 renal = tested on: RXF 393 renal
SW-620 colon = tested on: SW-620 colon
HOP-92 NSCLC = tested on: HOP-92 NSCLC
NCI-H522 lung = tested on: NCI-H522 lung
SF-268 CNS = tested on: SF-268 CNS
SK-MEL-5 melanoma = tested on: SK-MEL-5 melanoma
PC-3 prostate = tested on: PC-3 prostate
MDA-MB-435 = tested on: MDA-MB-435
U251 CNS = tested on: U251 CNS
OVCAR-8 ovarian = tested on: OVCAR-8 ovarian
HCT-15 colon = tested on: HCT-15 colon

Work on `O=C(/C=C/c1ccc(Cl)cc1)c1nc2ccccc2n1Cc1ccc(F)cc1` yielded a GI50 (SNB-75 CNS) of 2900 nM, a TGI (SNB-75 CNS) greater than 100 µM and a GI50 (NCI-H226 lung) of 20.8 µM. For the same compound, the TGI (NCI-H226 lung) was 62.1 µM, the GI50 (SR leukemia) was 5.12 µM and the TGI (SR leukemia) was greater than 100 µM. The GI50 (HCC-2998 colon) was 14.7 µM, the TGI (HCC-2998 colon) was 28.5 µM and the GI50 (HT29 colon) was 13.1 µM. It also gave a TGI (HT29 colon) of 31.5 µM, a GI50 (OVCAR-3 ovarian) of 5.05 µM and a TGI (OVCAR-3 ovarian) of 22.2 µM. The GI50 (SK-OV-3 ovarian) was 41.2 µM, the TGI (SK-OV-3 ovarian) was greater than 100 µM and the GI50 (MALME-3M melanoma) was 15.2 µM. For the same compound, the TGI (MALME-3M melanoma) was 34.3 µM, the GI50 (A549 NSCLC) was 22.9 µM and the TGI (A549 NSCLC) was greater than 100 µM. The GI50 (HL-60(TB) leukemia) was 9.53 µM, the TGI (HL-60(TB) leukemia) was 47.1 µM and the GI50 (IGROV1 ovarian) was 14.5 µM. It also gave a TGI (IGROV1 ovarian) of 41.9 µM, a GI50 (MDA-MB-231 breast) of 16.4 µM and a TGI (MDA-MB-231 breast) of 42 µM. The GI50 (MOLT-4 leukemia) was 4.15 µM, the TGI (MOLT-4 leukemia) was greater than 100 µM and the GI50 (SK-MEL-28 melanoma) was 14.9 µM. For the same compound, the TGI (SK-MEL-28 melanoma) was 32.5 µM, the GI50 (HOP-62 NSCLC) was 14.8 µM and the TGI (HOP-62 NSCLC) was 36.8 µM. For the same compound, the GI50 (SNB-19 CNS) was 14.7 µM, the TGI (SNB-19 CNS) was 33 µM and the GI50 (EKVX NSCLC) was 17.5 µM. For the same compound, the TGI (EKVX NSCLC) was 44.9 µM, the GI50 (ACHN renal) was 17.7 µM and the TGI (ACHN renal) was 51.4 µM. The GI50 (BT-549 breast) was 11.8 µM, the TGI (BT-549 breast) was 30.4 µM and the GI50 (SK-MEL-2 melanoma) was 14.5 µM. It also gave a TGI (SK-MEL-2 melanoma) of 40.1 µM, a GI50 (NCI-H460 lung) of 11 µM and a TGI (NCI-H460 lung) of 28.4 µM. The GI50 (T-47D breast) was 5.89 µM, the TGI (T-47D breast) was 33.9 µM and the GI50 (SN12C renal) was 18.7 µM. For the same compound, the TGI (SN12C renal) was 70.9 µM, the GI50 (SF-539 CNS) was 14.1 µM and the TGI (SF-539 CNS) was 27.9 µM. The GI50 (NCI-H23 lung) was 14.4 µM, the TGI (NCI-H23 lung) was 36.8 µM and the GI50 (MCF7 breast) was 3.76 µM. It also gave a TGI (MCF7 breast) of 76.4 µM, a GI50 (TK-10 renal) of 20 µM and a TGI (TK-10 renal) of 75.8 µM. It also gave a GI50 (OVCAR-5 ovarian) of 17.5 µM, a TGI (OVCAR-5 ovarian) of 37.2 µM and a GI50 (RPMI-8226 leukemia) of 4.59 µM. For the same compound, the TGI (RPMI-8226 leukemia) was 53 µM, the GI50 (A498 renal) was greater than 100 µM and the TGI (A498 renal) was greater than 100 µM. The GI50 (COLO 205 colon) was 14.8 µM, the TGI (COLO 205 colon) was 32.9 µM and the GI50 (OVCAR-4 ovarian) was 23.4 µM. For the same compound, the TGI (OVCAR-4 ovarian) was greater than 100 µM, the GI50 (DU-145 prostate) was 16.5 µM and the TGI (DU-145 prostate) was 63.3 µM. The GI50 (LOX IMVI melanoma) was 4.97 µM, the TGI (LOX IMVI melanoma) was 18.1 µM and the GI50 (UACC-62 melanoma) was 13.2 µM. The TGI (UACC-62 melanoma) was 30.5 µM, the GI50 (CCRF-CEM leukemia) was 4.12 µM and the TGI (CCRF-CEM leukemia) was greater than 100 µM. The GI50 (CAKI-1 renal) was 7.89 µM, the TGI (CAKI-1 renal) was 43 µM and the GI50 (K-562 leukemia) was 6.18 µM. It also gave a TGI (K-562 leukemia) greater than 100 µM, a GI50 (UACC-257 melanoma) of 19.5 µM and a TGI (UACC-257 melanoma) of 86.8 µM. For the same compound, the GI50 (UO-31 renal) was 9.9 µM, the TGI (UO-31 renal) was 22 µM and the GI50 (786-0 renal) was 13.2 µM. The TGI (786-0 renal) was 28.9 µM, the GI50 (KM12 colon) was 11.9 µM and the TGI (KM12 colon) was 45.7 µM. For the same compound, the GI50 (HCT-116 colon) was 11.8 µM, the TGI (HCT-116 colon) was 25.2 µM and the GI50 (MDA-MB-468 breast) was 10.4 µM. It also gave a TGI (MDA-MB-468 breast) of 28 µM, a GI50 (HS 578T breast) of 19.8 µM and a TGI (HS 578T breast) greater than 100 µM. The GI50 (M14 melanoma) was 14.1 µM, the TGI (M14 melanoma) was 32 µM and the GI50 (SF-295 CNS) was 14.3 µM. The TGI (SF-295 CNS) was 33.9 µM, the GI50 (RXF 393 renal) was 7.71 µM and the TGI (RXF 393 renal) was 21.7 µM. For the same compound, the GI50 (SW-620 colon) was 8.58 µM, the TGI (SW-620 colon) was 28.6 µM and the GI50 (HOP-92 NSCLC) was 7.12 µM. It also gave a TGI (HOP-92 NSCLC) of 79.7 µM, a GI50 (NCI-H522 lung) of 13.7 µM and a TGI (NCI-H522 lung) of 31.4 µM. It also gave a GI50 (SF-268 CNS) of 19.2 µM, a TGI (SF-268 CNS) greater than 100 µM and a GI50 (SK-MEL-5 melanoma) of 15.2 µM. For the same compound, the TGI (SK-MEL-5 melanoma) was 36.2 µM, the GI50 (PC-3 prostate) was 14.3 µM and the TGI (PC-3 prostate) was 58.5 µM. The GI50 (MDA-MB-435) was 11.4 µM, the TGI (MDA-MB-435) was 29.4 µM and the GI50 (U251 CNS) was 10.3 µM. The TGI (U251 CNS) was 25.2 µM, the GI50 (OVCAR-8 ovarian) was 13.9 µM and the TGI (OVCAR-8 ovarian) was 42.5 µM. It also gave a GI50 (HCT-15 colon) of 7.86 µM and a TGI (HCT-15 colon) of 23.4 µM.
